The source of these data is patent publication EP1861101B1, “USE OF AMIDES OF SULFADIMIDINE FOR THE TREATMENT OF INTESTINAL DISEASES IN VETERINARY SCIENCE” (priority 2005, dated 2006).

Like-named read-outs stand apart in the source and are kept apart here.

In series [1] the test system is Clostridium, E. coli, and Salmonella. Kind of series: treatment of ovine livestock with soluble SMAA in drinking water. Format: in vivo. The protocol: In another preferred embodiment of the invention, soluble SMAA is applied with drinking water. This application is especially useful for the treatment of enteric bacterial processes, mainly Clostridium, E. coli, and Salmonella. […] Incompatibilities with other medicaments are unknown. A withdrawal period before slaughter is not necessary. When non-absorbable derivatives of sulfadimidine are added to drinking water, they are not often associated with other molecules. […] The usual dose ranges from 550-1100 g/2000 liters of water for 4 to 6 days. The availability of a soluble form makes it possible to administer the product in a milk substitute. In this case the dosage should be established in relation to the consumption of powdered milk substitutes.

A short description of series [2]: solubility in water. The series is classed as physicochemical. An excerpt: If the amide is the amide of maleic acid (SMAA), the amide comprises one carboxylic group. […] The free acids of the compound of the invention are essentially water insoluble and electrically neutral compounds, which become soluble in water when the free carboxyl group or other groups in the compound are converted to the carboxylate form by addition of an equivalent amount of an appropriate base, for instance an alkali or ammonium hydroxide or amine or alkanolamine.

Series [3] relates to Coccidia.
For series [4], the system named is digestive syndrome. Kind of series: prevention and treatment of digestive syndrome (colibacillosis and enterotoxemia) in rabbit farming. Format: in vivo. Conditions: rabbits. From the text:
Given the complex relations existing between colibacillosis and enterotoxemia, they are currently included under the designation "digestive syndrome" for practical purposes. Treatment with an association of systemic drugs with drugs acting exclusively on the intestinal tract is indicated.
In the following table 2 the use of SMAA is compared to the products used most often in rabbit farming for the prevention and treatment of digestive syndrome: Table 2

Series [5] deals with C. perfringens. Format: in vivo, lambs. Conditions: 500 g/ton of feed.
Series [6] in a line: depletion of residue in lambs fed treated feed until the day of slaughter. The series is classed as in vivo. Conditions: lambs that consumed treated feed until the day of slaughter.
Series [7] concerns Clostridium, E. coli, Salmonella, and Eimeria parasites. Kind of series: treatment of ovine livestock with SMAA in food. The settings on record: even at high doses. The series is classed as in vivo. From the text:
In general, ovine livestock according to the invention is preferably treated with SMAA in food. The invention is especially useful for the prevention of enteric bacterial processes, mainly due to Clostridium, E. coli, Salmonella, and Eimeria parasites. […] Incompatibilities with other medicaments are unknown. It is not necessary to establish a withdrawal period before slaughter.
According to the invention, the association of SMAA-chlortetracycline is preferred when the pathology is located fundamentally in the digestive tract, and the association of SMAA-oxytetracycline when a preventive action at the enteric and respiratory level is sought. The most habitual doses range from 200 and 400 g/ton of feed, although it can be raised to 750 g/ton without problems.

The subject of series [8] is Eimeria. Kind of series: field tests, treatment of coccidiosis in broilers through feed. The settings on record: 200 to 400 g/metric ton of feed; given in the first three weeks of life, then replaced by another coccidiostatic. The series is classed as in vivo. How it is done: SMAA was used for the treatment of coccidiosis in broilers through feed, at doses ranging from 200 to 400 g/metric ton of feed. The best results in terms of mortality, weight gain, and conversion index have been obtained when SMAA is administered in the first three weeks of life of the chickens, and then replaced by another coccidiostatic. To this effect, our experience confirms the observations that an even improved productivity is obtained when two different coccidiostatics are alternated in the growth period.

Series [9] has as its system digestive bacterial diseases in pigs. Kind of series: SMAA in feed against enteric processes in swine. Format: in vivo. Conditions: 400-600 g per ton of feed.
Series [10] concerns Serpulina hyodisenteriae. Kind of series: SMAA in feed against swine dysentery. Conditions: 550-600 g per ton of feed. Format: in vivo. An excerpt: Although establishing a dose for the administration of a therapeutic molecule is always difficult, because therapeutic efficacy not depend only on its efficacy at a given dose, but also on the state of the animals, management, sanitary conditions of operation, feeding etc., good results were obtained with SMAA in swine at doses of 550-600 g of SMAA per ton of feed. The association of SMAA with macrolides is interesting, but it is extremely important to consider the withdrawal period of the macrolide to avoid the accumulation of residues in carcasses.

For series [11] the following is noted: growth feed for swine; cited from earlier work.

As to `Cc1cc(C)nc(NS(=O)(=O)c2ccc(NC(=O)/C=C\C(=O)O)cc2)n1` [soluble SMAA], in series [1] (even at high doses), the dysbacteriosis entry was “no problems of dysbacteriosis have appeared”. Besides, the “treatment of coccidiosis outbreaks” value in [1] (usually 4 to 6 days) was “highly effective”. The solubility in water result in series [2] (listed as sodium salt) was “essentially soluble”.

Take `COc1cc(NS(=O)(=O)c2ccc(N)cc2)nc(OC)n1` [Sulfadimethoxine]: the Observations entry in series [3] (efficacy remark, rabbits) is listed as “Very interesting in mixed infections”; in series [3] (rabbit, in vivo) it was “requires a period of withdrawal before slaughter”.

For the molecule `Cc1cc(C)nc(NS(=O)(=O)c2ccc(NC(=O)/C=C\C(=O)O)cc2)n1` [SMAA, 4,6-dimethyl-2-N^4-maleylsulfanilamidopyrimidine], the Observations entry in series [4] (duration of treatment and toxicity) is recorded as “Treatment can be prolonged without risk of toxicity”; in series [4] (effect on mortality) it was “This treatment curtails mortality”; in series [4] (efficacy remark), “The most effective agent in mixed infections by Coccidia”; in [3] (efficacy remark, rabbits) it was “most effective in mixed infections with E. coli”; in series [3] (rabbit, in vivo) it was “Treatment can be extended up to 3 weeks, if given in low doses, without risk of toxicity or residues in carcasses”. Besides, the mortality result in [5] (end of trial (4 weeks), due to undetermined causes) is recorded as “lower than 0.3%”. For the same molecule, the “enterotoxemia in the livestock” value in series [5] (end of trial (4 weeks), five thousand lambs, richer feed (1.03 UFC)) is reported as “absent”. Moreover, in series [5] (trial of 4 weeks), the “watery diarrhea caused by E. coli, Salmonella dysentery, or coccidiosis” value is “no case”. Besides, the “residue level in meat” value in series [6] is listed as “below 30 ppb”. Further, in series [7], the dysbacteriosis result is given as “no problems of dysbacteriosis have appeared”. Further, in series [8], the “mortality, weight gain, and conversion index” value is “best results”. Moreover, the results in swine in series [9] and in series [10] was “good results” in each case. For the same molecule, in series [2] (listed as free acid of SMAA), the solubility in water entry is listed as “essentially insoluble”.

Turning to Neomycin, in series [4] (efficacy remark), the Observations result was “Efficacious against moderately pathogenic strains”.

For the molecule `O=C1OCCN1/N=C/c1ccc([N+](=O)[O-])o1` [Furazolidone], the Observations result in [4] (efficacy remark) was “Effective”.

With `COc1cc(NS(=O)(=O)c2ccc(NC(=O)/C=C\C(=O)O)cc2)nc(OC)n1` [Sulfadimethoxine maleic acid amide], the Observations entry in [3] (efficacy remark, rabbits) was “Very interesting in mixed infections”; in series [3] (rabbit, in vivo), “Treatments can continue for 21 days without risk of toxicity or residues in carcasses”.

For the molecule Colistin, in series [4] (effect on mortality), the Observations result is reported as “Colistin reduces mortality”.

As to `CCN1CCN(c2cc3c(cc2F)c(=O)c(C(=O)O)cn3C2CC2)CC1` [Enrofloxacin], the Observations entry in [4] (efficacy remark) is on record as “Effective”.

On to `Cc1cc(C)nc(NS(=O)(=O)c2ccc(N)cc2)n1` [Sulfadimidine, 2-(4-aminobenzenesulfonamido)-4,6-dimethylpyrimidine], for which, in series [3] (effect on mortality, rabbits), the Observations result was “This treatment curtails mortality”. Further, in series [11], the withdrawal period is listed as 28 days.
